Reference: patent publication US20250026733A1, “DEUTERATED ANALOGS OF PYROLE INHIBITORS OF ERK, SYNTHESIS THEREOF AND INTERMEDIATES THERETO” (BIOMED VALLEY DISCOVERIES, INC., priority 2022, published 2025)
Where two headings read alike, the source gives them in different places. Marks after values point to notes of the source that are not given here.

Key:
[1] = Pharmacokinetics and metabolite formation in rats; assay type: in vivo, rat; settings: for AUC(0-t) / half-life: both sexes
Method: Ulixertinib, Formulas 18A, 19A, and 21A were dosed twice daily (12 hours apart, ±30 minutes) for five consecutive days (10 doses/animal) to rats via oral gavage (PO). Each compound was administered at a dose of 12.5 mg/kg to 6 rats (3 male/3 female, N=6 rats/compound). Each compound was formulated in 1% (w/v) carboxymethylcellulose (CMC) in water at a concentration of 1.25 mg/mL. Following the second (p.m.) dose on Day 5, blood samples were collected from each rat at approximately 0.5, 1, 2, 4, 6, 8, and 12 hours post-dose. Blood samples were centrifuged to obtain plasma. Plasma samples were analyzed for concentrations of the dosed compounds and selected metabolites using an established LC-MS/MS method. The lower limit of quantitation of each compound was 1.00 ng/mL. The rat half-life values (determined by non-compartmental analysis using WinNonlin software) for each compound are shown in Table 7, and the areas under curve from time 0 to hour 12 (AUC0-12), calculated using the linear trapezoidal rule, for each dosed compound and selected metabolites are presented in Table 8.

[2] = Steady-state exposure of ulixertinib and metabolites in rat; assay type: in vivo
From the text: (§1) The steady state exposure levels of non-isotopically enriched parent ulixertinib and related metabolites in rat (day 5) and human subjects (day 15) is provided in TABLE 1 below: […]

[3] = Steady-state exposure of ulixertinib and metabolites in human subjects; assay type: in vivo
From the text: as §1

A375 cells = assay: A375 proliferation assay (Cell TiterGlo); assay type: cell-based; settings: Homo sapiens, A-375, 72 hours
Method: Mechanism of Action (MOA) Cell Assay—A375 Cell Proliferation, pERK/ERK and pRSK/RSK Analysis:
Briefly, A375 cells were plated at 10,000 cells/well in three 96 well plates. Plates were incubated overnight at 37° C. and allowed to recover. Cells were washed with 150 μL of DPBS and 90 μL of fresh media was added to each well. The cells were then treated with a dose response of the selected compounds. Compounds were diluted from stock concentrations (10 mM in DMSO). Serial dilutions were made in DMSO, yielding 8 total different concentrations per compound. At time of compound addition, the control plate was analyzed using Cell TiterGlo to set baseline for proliferation. Compound treated cells were allowed to grow at 37° C./5% CO2 for 72 hours then analyzed using Cell TiterGlo according to kit protocol.

[4] = tested on: phospho-ERK1/2 to total ERK1/2 in A375 cells; assay: A375 pERK/ERK dose response study (MSD); assay type: cell-based; settings: Homo sapiens, A-375, ratio of phospho-ERK1/2 to total ERK1/2
Method: A375 pERK/ERK Dose Response Study:
Briefly, A375 cells were plated at 30,000 cells/well in 2×96 well plates, allowed to recover overnight, washed and fed fresh media the next day then treated with a dose response of the selected compounds. Following the determined pretreatment time with the compounds at 37° C./5% CO2, the media was aspirated, and cells lysed with cold, complete MESO Scale Discovery (MSD) lysis buffer. pERK and total ERK1/2 levels were measured using MESO Scale Discover Phospho(Thr202/Tyr204; Thr185/Tyr187)/Total ERK1/2 kits. The protocol and all reagents were provided in the kit. All wells were blocked with 150 μl Blocking Solution for one hour. […] of lysis buffer was added per well and incubated overnight at 4° C. Following the overnight incubation, the wells were washed three times with Tris Wash buffer, then […] of 1× Detection Antibody was added per well and incubated at room temperature for one hour with vigorous shaking. All wells were then washed three times with Tris Wash Buffer before 150 μl of 1× Read Buffer was added per well and the plates read using the MSD Sector Imager. Data were calculated as a ratio of phospho-ERK1/2 to total ERK1/2 to allow for normalization of the samples.

pRSK/RSK in A375 cells = assay: A375 pRSK/RSK dose response study (ELISA); assay type: cell-based; settings: Homo sapiens, A-375, pRSK and total RSK ELISA
Method: A375 pRSK/RSK Dose Response Study
Briefly, A375 cells were plated at 30,000 cells/well in 2×96 well plates, allowed to recover overnight, washed and fed fresh media the next day then treated with a dose response of the selected compounds. Following the determined pretreatment with the compounds at 37° C./5% CO2 the media was aspirated, and cells lysed with cold, complete MSD lysis buffer. pRSK and total RSK were analyzed using CST/PathScan pRSK and total RSK ELISAS according to the respective kit protocols. All samples were analyzed at 90% of remaining sample in pRSK and 10% of remaining sample in total RSK ELISA, which was performed following kit protocols.

AUC(0-t) ([1]; rat, in vivo, po, 12.5 mg/kg) | half-life ([1]; rat, in vivo, po, 12.5 mg/kg) | AUC0-12 M2, percent change relative to Ulixertinib ([1]; both, rat, in vivo) | AUC0-12 M3, percent change relative to Ulixertinib ([1]; both, rat, in vivo) | AUC0-12 M6, percent change relative to Ulixertinib ([1]; both, rat, in vivo) | AUC0-12 Parent, percent change relative to Ulixertinib ([1]; both, rat, in vivo) | Half-life, percent change relative to Ulixertinib ([1]; both, rat, in vivo) | longer mean half-life than ulixertinib ([1]; both, rat, in vivo) | % of total Ulixertinib related exposure ([2]; day 5, steady state) | AUC at 5 day ([2]; in vivo, day 5, non-isotopically enriched ulixertinib and related metabolites, read-out: Steady-State AUC (Mean ± SD)) | % of total Ulixertinib related exposure ([3]; day 15, steady state) | AUC at 15 day ([3]; in vivo, day 15, non-isotopically enriched ulixertinib and related metabolites, read-out: Steady-State AUC (Mean ± SD)) | IC50 (A375 cells) | IC50 [4] | IC50 (pRSK/RSK in A375 cells) | AUC(0-t) ([1]; rat plasma, 12.5 mg/kg PO twice daily for five days, after second dose on Day 5, N=6, read-out: AUC0-12, Parent, Mean) | half-life ([1]; rat plasma, 12.5 mg/kg PO twice daily for five days, after second dose on Day 5, N=6, read-out: Half-life, t1/2, Mean (converted)) | Structure (SMILES)
193 µg·h/mL | 3.81 h | (−17%^a) | (+8%^a) | (+7%^a) | (+12%^a) | (+4%^a) | 4% |  |  |  |  |  |  |  |  |  | Cl.[2H]C(C)(C)Nc1cc(-c2c[nH]c(C(=O)N[C@H](CO)c3cccc(Cl)c3)c2)c(Cl)cn1 [Formula 21A]
 |  |  |  |  |  |  |  | 91.1% | 179 ± 49 µg·h/mL | 37.5% | 29.6 ± 16.1 µg·h/mL | 250 nM | 58 nM | 37 nM | 173 µg·h/mL | 3.67 h | CC(C)Nc1cc(-c2c[nH]c(C(=O)N[C@H](CO)c3cccc(Cl)c3)c2)c(Cl)cn1 [Ulixertinib, reference compound]
 |  |  |  |  |  |  |  |  |  |  |  | 300 nM | 70 nM | 40 nM |  |  | [2H]C([2H])([2H])C([2H])(Nc1cc(-c2c[nH]c(C(=O)N[C@H](CO)c3cccc(Cl)c3)c2)c(Cl)cn1)C([2H])([2H])[2H] [Formula 18, 4-(5-chloro-2-((propan-2-yl-d7)amino)pyridin-4-yl)-N-(1-(3-chlorophenyl)-2-hydroxyethyl)-1H-pyrrole-2-carboxamide]
